Measured values taken from publication PMC12040169 (PLOS Biology, 2025).

Key:
in vitro [1] = conditions: human, hela cells, % viability
[2] = system: T1, C. trachomatis L2/434/Bu expressing GFP (CTL2-GFP); assay: microbe, parasite or virus in culture; parameters: C. trachomatis total inclusion area by high-content imaging, normalised to DMSO; conditions: Chlamydia trachomatis, HeLa, 28.5 h; total inclusion area; read-out: % of control remaining
T1 construct: L2/434/Bu GFP intracellular growth in HeLa cells
How it was run: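 Read-out combines bulk fluorescence and imaging: GFP tracks chlamydial growth, resorufin tracks host cell viability. Plates were then fixed and Hoechst-stained so inclusions and nuclei could be imaged and counted per well.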

in vitro [3] = assay: in vitro; parameters: Viability of infected HeLa host cells, resazurin conversion, bulk resorufin fluorescence relative to DMSO; conditions: human, hela cells; bulk resorufin, mean of 2
[4] = system: T2, CTL2-GFP (C. trachomatis L2/434/Bu, GFP-expressing); assay: microbe, parasite or virus in culture; parameters: Intracellular C. trachomatis growth in HeLa cells, bulk GFP fluorescence relative to DMSO; conditions: Chlamydia trachomatis, HeLa, 28.5 h; bulk GFP, mean of 2; read-out: % of control remaining
T2 construct: L2/434/Bu, GFP-expressing
Procedure: MICs were calculated as described above.

Structure (SMILES) | viability at 28.5 h, 10 µM (in vitro [1]) [%] | activity at 1 µM [2] [%] | activity at 5 µM [2] [%] | activity at 10 µM [2] [%] | viability at 28.5 h, 1 µM (in vitro [3]) [%] | viability at 28.5 h, 5 µM (in vitro [3]) [%] | viability at 28.5 h, 10 µM (in vitro [3]) [%] | activity at 1 µM [4] [%] | activity at 5 µM [4] [%] | activity at 10 µM [4] [%]
O=C(CSc1nnc(-c2cccnc2)o1)c1ccccc1 [CBK068446] | 139 | 67.4 | 24 | 6.22 | 112 | 111 | 114 | 74.8 | 13.2 | 1.98
COc1ccc([C@@H]2CN(C)C[C@H]2NC(=O)Nc2ccc(Cl)c(Cl)c2)cc1OC [CBK081111] | 99.3 | 105 | 25.8 | 3.39 | 92.3 | 92.2 | 88.4 | 118 | 21.4 | 8.62
O=C(Nc1ccc(F)c(F)c1)NC1CCC2CN(CCOc3ccccc3)CC2C1 (centres unmarked) [CBK083365T] | 105 | 35.6 | 0.438 | 0.173 | 89.3 | 86.5 | 88.8 | 34.9 | 8.25 | 5.26
COc1cc(CN2CCNCC2)c2ccn(S(=O)(=O)c3cccc(Cl)c3C)c2c1 [CBK144484T] | 87.1 | 90.6 | 59.5 | 23.3 | 104 | 95.7 | 102 | 113 | 109 | 57.5
O=C(NCCc1c[nH]c2ccc(Cl)cc12)c1c(F)ccc(Cl)c1F [CBK159756] | 93 | 92.7 | 39.2 | 2.12 | 98.5 | 96.7 | 94.6 | 103 | 35.2 | 3.33
CN1CCCN(c2ccc(NS(=O)(=O)c3cccc(F)c3)c3ccccc23)CC1 [CBK200010C] | 84.9 | 77.8 | 43.7 | 26.8 | 94.4 | 100 | 95.1 | 108 | 66.2 | 43.7
CCOc1ccsc1C(=O)NC1Cc2ccccc2C1 [CBK200359] | 82.6 | 88.7 | 0.493 | 0.44 | 104 | 96.4 | 93 | 57.4 | 3.62 | 6.67
NCCCNc1ncc(C(=O)NCc2ccccc2)c(NCC2CCCCC2)n1 [CBK215386] | 103 | 95.7 | 73.1 | 19.8 | 113 | 116 | 96.6 | 97.9 | 89.2 | 32.4
O=C(N/N=C/c1c(O)ccc2ccccc12)c1ccc(CO)nc1 [CBK261375] | 84.7 | 112 | 72.5 | 32.1 | 89.8 | 84.2 | 76.9 | 130 | 69 | 32.3
O=C(Nc1cccc(OC(=O)c2cc(S(=O)(=O)N3CCCCC3)ccc2Cl)c1)c1ccco1 [CBK262186] | 110 | 101 | 85.8 | 33.3 | 101 | 96.6 | 100 | 110 | 106 | 76.3
OC(CN1CCN(Cc2ccccc2)CC1)Cn1c2ccc(Br)cc2c2cc(Br)ccc21 (centres unmarked) [CBK262203] | 94.4 | 102 | 94.9 | 35 | 94.6 | 90.4 | 90 | 104 | 98.6 | 88.8
CC1=NN(c2ccccc2)C(=O)/C1=C/Nc1ccc(S(=O)(=O)Nc2nc(C)cc(C)n2)cc1 [CBK262368] | 106 | 70.2 | 28.2 | 14.1 | 96.6 | 93.9 | 96.8 | 46.9 | 21 | 13.7
CC1=NN(c2ccc(C)cc2)C(=O)/C1=C\Nc1ccc(S(=O)(=O)Nc2nc(C)cc(C)n2)cc1 [CBK262398] | 92.8 | 91.7 | 40.5 | 18 | 94.6 | 99.4 | 118 | 83.6 | 16.3 | 2.4
Cc1ccc(Cn2c(=N)n(CC(=O)c3cc(C(C)(C)C)c(O)c(C(C)(C)C)c3)c3ccccc32)cc1 [CBK262458B] | 82.6 | 99.9 | 36.5 | 52 | 92.1 | 96.7 | 101 | 127 | 56.5 | 91.9
CC(Nc1cccc2ccccc12)C(=O)N/N=C/c1ccc(O)cc1O (centres unmarked) [CBK262681] | 75.9 | 91.4 | 46.9 | 24.5 | 89.9 | 86.9 | 82.2 | 103 | 62.9 | 42.4
C/C(Nc1ccc(S(=O)(=O)Nc2nccc(C)n2)cc1)=C1\C(=O)N(c2nc3ccccc3s2)N=C1C(F)(F)F [CBK263002] | 90.1 | 62.8 | 27.5 | 22.8 | 93.4 | 89.8 | 88.6 | 31.6 | 15.5 | 14.3
CCc1nnc(NS(=O)(=O)c2ccc(N/C=C\C(=O)c3ccc4ccccc4c3)cc2)s1 [CBK263385] | 91.4 | 110 | 33.1 | 19.1 | 93.6 | 95.1 | 88.7 | 109 | 23.6 | 24
COc1c(Br)cc2c(cc(C)n2-c2ccccc2)c1OCC(O)CNC(C)C (centres unmarked) [CBK263516] | 93.8 | 1.64 | 0.762 | 0.887 | 99.6 | 83 | 91.3 | 6.43 | 9.2 | 7.41
COc1ccc(C2CC(=O)C=C(Nc3cc(Cl)ccc3O)C2)cc1 (centres unmarked) [CBK263542] | 105 | 81.9 | 0.174 | 3.14 | 90.9 | 101 | 87.8 | 86 | 0 | 9.05
Cc1cc(C)nc(NS(=O)(=O)c2ccc(NC(=O)N3c4ccccc4Sc4ccccc43)cc2)n1 [CBK263922] | 101 | 112 | 51.2 | 28.5 | 92.3 | 90.2 | 89.4 | 115 | 67.1 | 28.2
CCC(Sc1nnc2c(n1)[nH]c1ccccc12)C(=O)N1c2ccccc2Sc2ccccc21 (centres unmarked) [CBK263929] | 95.1 | 32.8 | 30.8 | 13.4 | 94.1 | 89.8 | 88.6 | 60.4 | 52.9 | 44.5
COc1cccc(C(=O)/C=C\Nc2ccc(S(=O)(=O)Nc3onc(C)c3C)cc2)c1 [CBK264206] | 93.4 | 68.5 | 28.9 | 19 | 106 | 104 | 114 | 83.7 | 25.4 | 8.04
Cc1noc(NS(=O)(=O)c2ccc(N/C=C\C(=O)c3cccnc3)cc2)c1C [CBK264285] | 102 | 69.7 | 26.3 | 17.9 | 106 | 103 | 104 | 72.6 | 13.6 | 11.8
